Laboratory results from patent US20210369615A1, “SOLID ORAL FORMULATIONS OF AMPHOTERICIN B” (iCo Therapeutics Inc., priority 2018, published 2021).
“And” between values parts separate entries of the source, which are not always exact repeats. Equal values may be shown once.

Test: Phase 1 single dose escalation pharmacokinetic study, Amphotericin B in human plasma
Type: in vivo
Details: for Amphotericin B concentration: 800 mg dose
Protocol: A phase 1, randomized, double-blind, placebo-controlled, single dose escalation study was performed to evaluate the pharmacokinetic parameters after administration of a single dose of Formula 1A. 100 mg (FIG. 10A), 200 mg (FIG. 10B), 400 mg (FIG. 10C) and 800 mg (FIG. 10D) doses were investigated in this study.
For each dose, AmpB or a placebo was administered, and blood samples were obtained pre-dose, and post-dosing at 0.5 hr, 1 hr, 2 hr, 3 hr, 4 hr, 6 hr, 8 hr, 10 hr, 12 hr, 24 hr, 36 hr, 48 hr, 60 hr, 72 hr, 144 hr, and 192 hr. Pharmacokinetic analysis was performed using Phoenix™ WinNonlin® (Pharsight Corporation). Doses and sampling times were entered as provided by the sponsor. Dose normalised parameters, and descriptive statistics were calculated using Phoenix™ WinNonlin®.
Where Ct is the last measurable concentration and Kel is the elimination rate constant estimated using log-linear regression during the terminal elimination phase. • t½: Elimination half-life, determined by ln(2)/Kel • CL/f: Observed Systemic clearance, calculated as dose/AUC • Vz: Observed Volume of distribution during the terminal phase, calculated as CL/Kel

[1] = single 100 mg dose (Formula 1A), Geometric Mean, N 6
[2] = single 100 mg dose (Formula 1A), Mean, N 6
[3] = single 100 mg dose (Formula 1A), Median, N 6
[4] = single 100 mg dose (Formula 1A), individual subjects A, B, C, D, F, H
[5] = single 200 mg dose (Formula 1A), Geometric Mean, N 6

C[C@@H]1[C@H](O)[C@@H](C)/C=C/C=C/C=C/C=C/C=C/C=C/C=C/[C@H](O[C@@H]2O[C@H](C)[C@@H](O)[C@H](N)[C@@H]2O)C[C@@H]2O[C@](O)(C[C@@H](O)C[C@@H](O)[C@H](O)CC[C@@H](O)C[C@@H](O)CC(=O)O[C@H]1C)C[C@H](O)[C@H]2C(=O)O [Amphotericin B]
Amphotericin B concentration (nominal hour 0.5, individual subjects): BQL | Amphotericin B concentration (nominal hour 1, individual subjects): 0.791 ng/mL and BQL (5×) | Amphotericin B concentration (nominal hour 2, individual subjects): 7.683 ng/mL and 8.234 ng/mL and 2.414 ng/mL and 5.164 ng/mL and 3.206 ng/mL and 4.175 ng/mL | Amphotericin B concentration (nominal hour 4, individual subjects): 16.397 ng/mL and 28.318 ng/mL and 18.814 ng/mL and 17.942 ng/mL and 23.486 ng/mL and 20.176 ng/mL | Amphotericin B concentration (nominal hour 6, individual subjects): 29.902 ng/mL and 40.067 ng/mL and 30.628 ng/mL and 24.140 ng/mL and 33.962 ng/mL and 31.375 ng/mL | Amphotericin B concentration (nominal hour 8, individual subjects): 22.535 ng/mL and 31.543 ng/mL and 30.838 ng/mL and 27.279 ng/mL and 39.722 ng/mL and 22.816 ng/mL | Amphotericin B concentration (nominal hour 10, individual subjects): 21.595 ng/mL and 29.990 ng/mL and 25.996 ng/mL and 32.914 ng/mL and 42.805 ng/mL and 22.226 ng/mL | Amphotericin B concentration (nominal hour 12, individual subjects): 21.001 ng/mL and 31.865 ng/mL and 22.810 ng/mL and 27.866 ng/mL and 40.021 ng/mL and 21.390 ng/mL | Amphotericin B concentration (nominal hour 24, individual subjects): 16.218 ng/mL and 14.674 ng/mL and 23.607 ng/mL and 14.816 ng/mL and 19.124 ng/mL and 26.064 ng/mL | Amphotericin B concentration (nominal hour 36, individual subjects): 10.661 ng/mL and 16.074 ng/mL and 13.715 ng/mL and 9.365 ng/mL and 12.504 ng/mL and 19.218 ng/mL | Amphotericin B concentration (nominal hour 48, individual subjects): 6.472 ng/mL and 12.880 ng/mL and 12.291 ng/mL and 7.395 ng/mL and 8.947 ng/mL and 13.166 ng/mL | Amphotericin B concentration (nominal hour 63, individual subjects): 6.398 ng/mL and 10.642 ng/mL and 7.859 ng/mL and 3.935 ng/mL and 6.865 ng/mL and 9.972 ng/mL | Amphotericin B concentration (nominal hour 72, individual subjects): 5.044 ng/mL and 10.165 ng/mL and 6.793 ng/mL and 2.412 ng/mL and 3.808 ng/mL and 8.297 ng/mL | Amphotericin B concentration (nominal hour 144, individual subjects): 0.539 ng/mL and 2.254 ng/mL and 1.380 ng/mL and 0.329 ng/mL and 0.518 ng/mL and 1.905 ng/mL | Amphotericin B concentration (nominal hour 192, individual subjects): BQL (3×) and 0.726 ng/mL and 0.132 ng/mL and 0.243 ng/mL | Amphotericin B concentration (pre-dose, individual subjects): BQL | % AUCexp [1]: 16.37% | AUCO-inf [1]: 1155.07 ng·h/mL | AUCO-t [1]: 865.75 ng·h/mL | CL/F [1]: 86574.82 mL/h | Cmax [1]: 29.45 ng/mL | Kel [1]: 0.02 h⁻¹ | Tmax [1]: 6.00 h | T½ [1]: 28.42 h | V/F [1]: 3549117.10 mL | % AUCexp [2]: 23.01% | AUCO-inf [2]: 1329.45 ng·h/mL | AUCO-t [2]: 912.51 ng·h/mL | CL/F [2]: 96064.72 mL/h | Cmax [2]: 30.22 ng/mL | Kel [2]: 0.03 h⁻¹ | Tmax [2]: 6.00 h | T½ [2]: 31.80 h | V/F [2]: 3656853.27 mL | % AUCexp [3]: 16.74% | AUCO-inf [3]: 1029.80 ng·h/mL | AUCO-t [3]: 759.65 ng·h/mL | CL/F [3]: 102549.85 mL/h | Cmax [3]: 28.02 ng/mL | Kel [3]: 0.03 h⁻¹ | Tmax [3]: 6.00 h | T½ [3]: 27.27 h | V/F [3]: 3591414.60 mL | % AUCexp [4]: 12.17% and 44.38% and 21.32% and 9.08% and 47.20% and 3.91% | AUCO-inf [4]: 723.90 ng·h/mL and 1362.29 ng·h/mL and 1267.06 ng·h/mL and 788.16 ng·h/mL and 3042.77 ng·h/mL and 792.54 ng·h/mL | AUCO-t [4]: 635.82 ng·h/mL and 757.71 ng·h/mL and 996.95 ng·h/mL and 716.57 ng·h/mL and 1606.43 ng·h/mL and 761.59 ng·h/mL | CL/F [4]: 138140.40 mL/h and 73405.78 mL/h and 78922.85 mL/h and 126877.64 mL/h and 32864.80 mL/h and 126176.85 mL/h | Cmax [4]: 22.66 ng/mL and 24.41 ng/mL and 30.05 ng/mL and 25.98 ng/mL and 43.57 ng/mL and 34.67 ng/mL | Kel [4]: 0.03 1/hr and 0.01 1/hr (2×) and 0.02 1/hr and 0.04 1/hr and 0.05 1/hr | Tmax [4]: 6.00 h | T½ [4]: 22.60 h and 47.37 h and 31.94 h and 19.37 h and 55.13 h and 14.42 h | V/F [4]: 4503070.74 mL and 5016960.70 mL and 3637239.70 mL and 3545589.51 mL and 2613781.85 mL and 2624477.13 mL | % AUCexp [5]: 13.76% | AUCO-inf [5]: 1040.21 ng·h/mL | AUCO-t [5]: 822.65 ng·h/mL | CL/F [5]: 192268.01 mL/h | Cmax [5]: 28.66 ng/mL | Kel [5]: 0.03 h⁻¹ | Tmax [5]: 6.29 h | T½ [5]: 25.39 h | V/F [5]: 7043125.41 mL | % AUCexp (single 200 mg dose (Formula 1A), Mean, N 6): 19.01%
